Series [1] has as its target T1, ALPK1 (Homo sapiens, UniProt Q96QP1). As to the kind of experiment: IL8 secretion in HEK293 cells (IL8 ELISA) as indicator of ALPK1 activation. As to conditions: for IL8 secretion in HEK293 cells: serial dilutions, 4 hours. For orientation: An ELISA detects its analyte on a solid surface through an enzyme-linked reagent.
Method: Phosphatase such as the alkaline phosphatase may be responsible for H1b-ADP hydrolysis. We pre-mixed H1b-ADP with phosphatase inhibitor sodium orthovanadate (Na3VO4) before incubation with FBS. […] We hypothesized that the accumulation of hydrolysis product AMP can inhibit phosphatase activity.
A number of H1b-ADP derivative compounds were made as described herein and tested for biological activity as agonists of ALPK1 in vitro. In these experiments, serial dilutions of the compounds were added to the tissue culture media of HEK293 cells with (FIG. 27B, FIG. 28B, FIG. 29B) or without (FIG. 26, FIG. 27A, FIG. 28A, FIG. 29A) 10% FBS, as indicated in the figures. After 4 hours, the cell supernatant was collected and analyzed for IL8 concentration using IL8 ELISA (BD) as an indicator of ALPK1 activation.
Series [2] addresses T1, ALPK1. The experiment in a line: In vitro kinase assay of ALPK1-dependent TIFA phosphorylation. It counts as biochemical. Particulars: ALPK1 2 nM, TIFA 1.6 uM, 50 uM ATP; compound 2 nM, 0.4 nM, 80 pM, 16 pM, 3 pM. On the procedure:
We performed an in vitro kinase assay with H1b-ADP and H1b-ADP-6L along with ALPK1 protein (2 nM), and TIFA protein (1.6 uM) in kinase buffer containing 50 uM ATP. TIFA phosphorylation was analyzed by denaturing gel electrophoresis followed by western blotting using an anti-phosphothreonine antibody. H1b-ADP or H1b-ADP-6L was added at 2 nM, 0.4 nM, 80 pM, 16 pM, and 3 pM.
To test this, we performed an in vitro kinase reaction for ALPK1-dependent TIFA phosphorylation in the presence of either HBP or HIdA purified from E. coli containing inactivated HIdE, or in the presence of HBP and HIdA purified from the same HIdE wild-type E. coli used in the previous experiments. Phosphorylated TIFA (three concentrations, 1%, 0.2% and […]) was detected as described above by denaturing gel electrophoresis followed by Western analysis.

“Also recorded” adds a separate entry of the source.

T1 sequence (Q96QP1 whole entry): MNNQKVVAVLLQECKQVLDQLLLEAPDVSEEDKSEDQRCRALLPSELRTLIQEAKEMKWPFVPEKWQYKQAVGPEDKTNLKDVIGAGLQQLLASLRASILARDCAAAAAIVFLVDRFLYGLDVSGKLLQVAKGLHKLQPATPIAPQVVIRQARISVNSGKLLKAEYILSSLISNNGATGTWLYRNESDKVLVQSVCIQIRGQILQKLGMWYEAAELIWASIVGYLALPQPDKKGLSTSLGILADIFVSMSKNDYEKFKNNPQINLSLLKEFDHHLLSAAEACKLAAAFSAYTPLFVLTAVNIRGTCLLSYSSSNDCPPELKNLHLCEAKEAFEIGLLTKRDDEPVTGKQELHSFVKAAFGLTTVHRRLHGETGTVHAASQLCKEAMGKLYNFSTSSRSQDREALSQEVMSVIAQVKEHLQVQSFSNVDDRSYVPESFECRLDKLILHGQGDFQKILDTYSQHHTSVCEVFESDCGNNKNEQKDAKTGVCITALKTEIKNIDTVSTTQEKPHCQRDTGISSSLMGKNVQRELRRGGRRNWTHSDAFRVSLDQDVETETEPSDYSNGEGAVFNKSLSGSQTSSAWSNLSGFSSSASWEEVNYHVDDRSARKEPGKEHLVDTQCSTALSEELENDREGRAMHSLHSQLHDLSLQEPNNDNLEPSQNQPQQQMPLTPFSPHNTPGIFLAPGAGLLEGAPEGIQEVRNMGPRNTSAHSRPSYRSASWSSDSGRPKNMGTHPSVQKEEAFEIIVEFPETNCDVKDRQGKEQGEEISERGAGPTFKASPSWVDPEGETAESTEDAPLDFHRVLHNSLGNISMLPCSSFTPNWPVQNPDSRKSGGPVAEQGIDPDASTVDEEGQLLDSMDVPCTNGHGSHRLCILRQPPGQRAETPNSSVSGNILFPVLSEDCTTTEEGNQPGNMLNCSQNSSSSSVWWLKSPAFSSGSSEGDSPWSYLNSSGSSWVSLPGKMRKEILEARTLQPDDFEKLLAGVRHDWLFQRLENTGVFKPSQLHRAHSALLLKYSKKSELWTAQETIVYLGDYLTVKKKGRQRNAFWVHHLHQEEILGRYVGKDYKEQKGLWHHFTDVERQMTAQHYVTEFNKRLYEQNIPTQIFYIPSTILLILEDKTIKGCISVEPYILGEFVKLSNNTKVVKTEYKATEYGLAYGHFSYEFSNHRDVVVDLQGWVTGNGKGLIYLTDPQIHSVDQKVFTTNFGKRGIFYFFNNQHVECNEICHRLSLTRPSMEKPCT

Consider `CC(=O)OC[C@@H](OC(C)=O)C1O[C@@H](OP(=O)(O)OP(O)(=S)OC[C@H]2O[C@@H](n3cnc4c(N)ncnc43)C(O)C2O)C(OC(C)=O)C(OC(C)=O)[C@@H]1OC(C)=O` (stereo partly drawn) [Compound 15, (2S,3S,4S,5R,6R)-2-(((((((2R,3S,4R,5R)-5-(6-amino-9H-purin-9-yl)-3,4-dihydroxytetrahydrofuran-2-yl)methoxy)(hydroxy)phosphorothioyl)oxy)(hydroxy)phosphoryl)oxy)-6-((R)-1,2-diacetoxyethyl)tetrahydro-2H-pyran-3,4,5-triyl triacetate], for which the “resistance to FBS (serum) degradation” value on ALPK1 [1] (comparison of IL8 secretion without FBS and with 10% FBS (FIG. 27A, FIG. 27B)) is “unexpected resistance to serum degradation; also recorded: resistant to FBS degradation”. Moreover, the “IL8 secretion in HEK293 cells” value on ALPK1 [1] (with 10% FBS) and at ALPK1 [1] (without FBS) was “activate IL8 secretion” throughout.

For `CC(=O)OC[C@H]1O[C@@H](OP(=O)(O)OP(=O)(O)OC[C@H]2O[C@@H](n3cnc4c(N)ncnc43)[C@H](O)[C@@H]2O)[C@@H](OC(C)=O)[C@@H](OC(C)=O)[C@@H]1OC(C)=O` [Compound 5, (2R,3R,4S,5S,6S)-2-(acetoxymethyl)-6-(((((((2R,3S,4R,5R)-5-(6-amino-9H-purin-9-yl)-3,4-dihydroxytetrahydrofuran-2-yl)methoxy)(hydroxy)phosphoryl)oxy)(hydroxy)phosphoryl)oxy)tetrahydro-2H-pyran-3,4,5-triyl triacetate], the “IL8 secretion in HEK293 cells” value on ALPK1 [1] (with 10% FBS) and at ALPK1 [1] (without FBS) was “increased IL8 secretion” throughout.

`CC(=O)OC[C@H](OC(C)=O)[C@H]1O[C@@H](OP(=O)(O)OP(=O)(O)OC[C@H]2O[C@@H](n3cnc4c(N)ncnc43)[C@H](O)[C@@H]2O)[C@@H](OC(C)=O)[C@@H](OC(C)=O)[C@@H]1OC(C)=O` [Compound 21, (2S,3S,4S,5R,6R)-2-(((((((2R,3S,4R,5R)-5-(6-amino-9H-purin-9-yl)-3,4-dihydroxytetrahydrofuran-2-yl)methoxy)(hydroxy)phosphoryl)oxy)(hydroxy)phosphoryl)oxy)-6-((S)-1,2-diacetoxyethyl)tetrahydro-2H-pyran-3,4,5-triyl triacetate]: the “IL8 secretion in HEK293 cells” value at ALPK1 [1] (with 10% FBS) and at ALPK1 [1] (without FBS) was “increased IL8 secretion” in each case.

As for `CO[C@@H]1[C@H](OC)[C@@H](COP(=O)(O)OP(=O)(O)O[C@@H]2O[C@H]([C@@H](COC(C)=O)OC(C)=O)[C@@H](OC(C)=O)[C@H](OC(C)=O)[C@@H]2OC(C)=O)O[C@H]1n1cnc2c(N)ncnc21` [Compound 13, (2S,3S,4S,5R,6R)-2-(((((((2R,3R,4R,5R)-5-(6-amino-9H-purin-9-yl)-3,4-dimethoxytetrahydrofuran-2-yl)methoxy)(hydroxy)phosphoryl)oxy)(hydroxy)phosphoryl)oxy)-6-((R)-1,2-diacetoxyethyl)tetrahydro-2H-pyran-3,4,5-triyl triacetate], the “IL8 secretion in HEK293 cells” value on ALPK1 [1] (with 10% FBS) and at ALPK1 [1] (without FBS) was “increased IL8 secretion” each time.

As for `CC(=O)OC[C@@H](OC(C)=O)[C@H]1O[C@@H](OP(=O)(O)OP(=O)(O)OC[C@@]2(F)O[C@@H](n3cnc4c(N)ncnc43)[C@H](O)[C@@H]2O)[C@@H](OC(C)=O)[C@@H](OC(C)=O)[C@@H]1OC(C)=O` [Compound 20, (2S,3S,4S,5R,6R)-2-(((((((2S,3S,4R,5R)-5-(6-amino-9H-purin-9-yl)-2-fluoro-3,4-dihydroxytetrahydrofuran-2-yl)methoxy)(hydroxy)phosphoryl)oxy)(hydroxy)phosphoryl)oxy)-6-((R)-1,2-diacetoxyethyl)tetrahydro-2H-pyran-3,4,5-triyl triacetate], the “IL8 secretion in HEK293 cells” value on ALPK1 [1] (with 10% FBS) and at ALPK1 [1] (without FBS) was “activate IL8 secretion” in each case.

Regarding `CC(=O)OC[C@@H](OC(C)=O)[C@H]1O[C@@H](OP(=O)(O)OP(=O)(O)OC[C@H]2O[C@@H](n3cnc4c(N)ncnc43)[C@H](O)[C@H]2F)[C@@H](OC(C)=O)[C@@H](OC(C)=O)[C@@H]1OC(C)=O` [Compound 17, (2S,3S,4S,5R,6R)-2-(((((((2R,3R,4S,5R)-5-(6-amino-9H-purin-9-yl)-3-fluoro-4-hydroxytetrahydrofuran-2-yl)methoxy)(hydroxy)phosphoryl)oxy)(hydroxy)phosphoryl)oxy)-6-((R)-1,2-diacetoxyethyl)tetrahydro-2H-pyran-3,4,5-triyl triacetate], the “IL8 secretion in HEK293 cells” value at ALPK1 [1] (with 10% FBS) and on ALPK1 [1] (without FBS) was “increased IL8 secretion” each time.

On to `CC(=O)OC[C@H](F)[C@H]1O[C@@H](OP(=O)(O)OP(=O)(O)OC[C@H]2O[C@@H](n3cnc4c(N)ncnc43)[C@H](O)[C@@H]2O)[C@@H](OC(C)=O)[C@@H](OC(C)=O)[C@@H]1OC(C)=O` [Compound 3, (2S,3S,4S,5S,6S)-2-((S)-2-acetoxy-1-fluoroethyl)-6-(((((((2R,3S,4R,5R)-5-(6-amino-9H-purin-9-yl)-3,4-dihydroxytetrahydrofuran-2-yl)methoxy)(hydroxy)phosphoryl)oxy)(hydroxy)phosphoryl)oxy)tetrahydro-2H-pyran-3,4,5-triyl triacetate], for which the “IL8 secretion in HEK293 cells” value on ALPK1 [1] (with 10% FBS) and at ALPK1 [1] (without FBS) was “activate IL8 secretion” in each case.

On to `Nc1ncnc2c1ncn2[C@@H]1O[C@H](COP(=O)(O)OP(=O)(O)O[C@@H]2O[C@H]([C@@H](O)CO)[C@@H](O)[C@H](O)[C@@H]2O)[C@@H](O)[C@H]1O` [Compound H1b-ADP-6L, L-glycero-D-manno-heptose-1β-ADP], for which the TIFA phosphorylation result at ALPK1 [2] was “activated ALPK1-dependent signaling in a manner similar to H1b-ADP”.

Regarding `Nc1ncnc2c1ncn2[C@@H]1O[C@H](COP(=O)(O)OP(=O)(O)O[C@@H]2OC([C@@H](O)CO)[C@@H](O)C(O)C2O)C(O)C1O` (stereo in doubt) [Compound 22, Adenosine-5′-(L-glycero-β-D-mannoheptopyranosyl) diphosphate], the “IL8 secretion in HEK293 cells” value at ALPK1 [1] (with 10% FBS) and on ALPK1 [1] (without FBS) was “increased IL8 secretion” throughout.

Regarding `CC(=O)OC[C@@H](OC(C)=O)C1O[C@@H](OP(=O)(O)OP(=O)(O)OCC2(F)O[C@@H](n3cnc4c(N)ncnc43)C3OC(C)(C)OC32)C(OC(C)=O)C(OC(C)=O)[C@@H]1OC(C)=O` (single isomer, unassigned) [Compound 19], the “IL8 secretion in HEK293 cells” value at ALPK1 [1] (with 10% FBS) and on ALPK1 [1] (without FBS) was “activate IL8 secretion” throughout.

Consider `COC1C(OC)[C@@H](COP(=O)(O)OP(=O)(O)O[C@@H]2OC([C@H](O)CO)[C@@H](O)C(O)C2O)O[C@H]1n1cnc2c(N)ncnc21` (stereo in doubt) [Compound 14, Adenosine-2′3′-dimethoxy-5′-(D-glycero-B-D-mannoheptopyranosyl) diphosphate], for which the “IL8 secretion in HEK293 cells” value on ALPK1 [1] (with 10% FBS) and on ALPK1 [1] (without FBS) was “increased IL8 secretion” each time.

Turning to `Nc1ncnc2c1ncn2[C@@H]1O[C@H](COP(O)(=S)OP(=O)(O)O[C@@H]2OC([C@H](O)CO)[C@@H](O)[C@H](O)C2O)[C@H](O)C1O` (stereo partly drawn) [Compound 16], the “IL8 secretion in HEK293 cells” value at ALPK1 [1] (with 10% FBS) and at ALPK1 [1] (without FBS) was “increased IL8 secretion” each time.

These data come from patent US11840551B2, “Compositions and methods of modulating the immune response by activating alpha protein kinase 1” (Shanghai Yao Yuan Biotechnology Co., Ltd., priority 2017, dated 2023).
